From ChEMBL document CHEMBL5126599, “Development of S-aryl dithiocarbamate derived novel antiproliferative compound exhibiting tubulin bundling” (Bioorg Med Chem, 2022) come the findings set out here.

In one experiment the test system is A549. Description: Antiproliferative activity against human A549 cells assessed as reduction in cell viability incubated for 72 hrs by MTT assay. Format: functional, cell-based. Conditions: A549, 72 h. (In general: Formazan colour is commonly taken as a measure of viable cells.)
Experiment [1] relates to HeLa. Description: Antiproliferative activity against human HeLa cells assessed as reduction in cell viability incubated for 72 hrs by MTT assay. Format: functional, cell-based.
For a further experiment, the system named is MCF7. In words: Antiproliferative activity against human MCF7 cells assessed as reduction in cell viability incubated for 72 hrs by MTT assay. In kind it is functional, cell-based. The settings on record: MCF7, 72 h.
The next experiment deals with MDA-MB-231. In words: Antiproliferative activity against human MDA-MB-231 cells assessed as reduction in cell viability incubated for 72 hrs by MTT assay. Format: functional, cell-based. The settings on record: MDA-MB-231, 72 h.
Experiment [2] has as its system HeLa. In words: Antiproliferative activity against human HeLa cells assessed as reduction in number of colonies at 0.432 to 0.864 uM for 72 hrs with media renew every 2 days and measured upto 2 weeks by crystal violet staining based microscopic analysis. Format: functional, cell-based. Conditions: dose 0.432-0.864 µM, DDE = dose-dependent effect.
Experiment [3] deals with HeLa. Description: Induction of cell cycle arrest in human HeLa cells assessed as accumulation at G2/M phase at 0.432 to 0.864 uM for 72 hrs by DAPI staining based fluorescence microscopy. In kind it is functional. The settings on record: dose 0.432-0.864 µM, DDE = dose-dependent effect.
Experiment [4] relates to HeLa. Description: Induction of apoptosis in human HeLa cells assessed as fold change as increase in necrotic cells at 0.432 to 0.864 uM for 72 hrs by Annexin-V/PI staining based fluorescence microscopy relative to control. In kind it is functional. The settings on record: dose 0.432-0.864 µM.
Experiment [5] relates to HeLa. Description: Induction of cell cycle arrest in human HeLa cells assessed as fold change as increase in accumulation at G2/M phase at 0.432 to 0.864 uM for 72 hrs by PI staining based flow cytometry relative to control. In kind it is functional. The settings on record: dose 0.432-0.864 µM. (In general: In flow cytometry, cells or beads pass a laser one at a time.)
In experiment [6] the test system is HeLa. In words: Induction of apoptosis in human HeLa cells assessed as fold change as increase in apoptotic cells at 0.432 to 0.864 uM for 72 hrs by PI staining based flow cytometry relative to control. The settings on record: dose 0.432-0.864 µM. In kind it is functional.
Experiment [7] concerns HeLa. Description: Induction of cell cycle arrest in human HeLa cells assessed as increase in cyclin B1 expression at 0.432 to 0.864 uM for 72 hrs by Western blot analysis. Format: functional, cell-based. The settings on record: dose 0.432-0.864 µM, DDE = dose-dependent effect. For orientation: In western blotting, separated proteins are transferred to a membrane and probed.

Experiment [8] deals with HeLa. In words: Induction of apoptosis in human HeLa cells assessed as increase in p53 protein expression at 0.432 to 0.864 uM for 72 hrs by Western blot analysis. In kind it is functional, cell-based. The settings on record: dose 0.432-0.864 µM, DDE = dose-dependent effect.
Experiment [9] relates to HeLa. In words: Induction of apoptosis in human HeLa cells assessed as increase in p21 protein expression at 0.432 to 0.864 uM for 72 hrs by Western blot analysis. In kind it is functional, cell-based. Conditions: dose 0.432-0.864 µM.
The target of experiment [10] is T1, Tubulin (Homo sapiens) (UniProt P68371+Q9H4B7+P0DPH7+P68366+Q13509+Q71U36+P04350+Q3ZCM7+P07437+P68363+Q9BQE3+Q6PEY2+Q13885+Q9BVA1+Q9BUF5). In words: Induction of microtubule stabilization in human HeLa cells assessed as microtubule bundling at 0.5 to 1 uM for 24 hrs by DAPI staining based fluorescence microscopy. Conditions: dose 0.5-1 µM, DDE = dose-dependent effect. In kind it is cell-based.

Experiment [11] addresses T1, Tubulin (Homo sapiens). Description: Induction of microtubule stabilization in human HeLa cells assessed as increase in alpha-tubulin level in cell pellet at 0.5 to 1 uM for 48 hrs by Western blot analysis. In kind it is cell-based. Conditions: dose 0.5-1 µM, DDE = dose-dependent effect.
Experiment [12] deals with T1, Tubulin (Homo sapiens). Description: Induction of microtubule stabilization in human HeLa cells assessed as microtubule bundling at 0.5 uM for 24 hrs by DAPI staining based fluorescence microscopy. Format: cell-based.
In experiment [13] the target is T1, Tubulin (Homo sapiens). In words: Induction of microtubule stabilization in human HeLa cells assessed as increase in alpha-tubulin level in cell pellet at 0.5 uM for 48 hrs by Western blot analysis. Format: cell-based. The settings on record: DDE = dose-dependent effect.

SMILES strings stand for the structures. Activity calls are given as the source filed them. The calls are words filed in the database; no cut-off is given here.

A word on the IC50: it is the concentration at which inhibition is half-maximal. With `Cc1cccc(SC(=S)N2CCN(C(=O)OC(C)(C)C)CC2)c1`, the 50% inhibitory concentration (IC50) in the experiment on A549 was 0.914 µM. For `CC(C)(C)c1ccc(SC(=S)N2CCCCC2)cc1`, the half-maximal inhibitory concentration (IC50) in the experiment with A549 stood at 9.13 µM. `CC(C)(C)OC(=O)N1CCN(C(=S)Sc2ccc(Br)cc2)CC1`: the IC50 in the experiment with A549 came out at 1.81 µM.

In the case of `CC(C)(C)OC(=O)N1CCN(C(=S)Sc2ccccc2)CC1`, the IC50 is 0.447 µM with A549, 0.432 µM in the experiment with HeLa [1], 1.75 µM with MCF7 and 0.615 µM with MDA-MB-231. The Activity result in the experiment with HeLa [2], in the experiment on HeLa [3], in the experiment with HeLa [7], in the experiment with HeLa [8], on Tubulin (Homo sapiens) [10] and at Tubulin (Homo sapiens) [11] was “Dde” in each case. The “fold change (FC)” value with HeLa [4] is recorded as 3; in the experiment with HeLa [5], 4; in the experiment on HeLa [6], 4. For the same compound, in the experiment with HeLa [9], the result was Active.

As to `Cc1cc(C)c(SC(=S)N2CCN(C(=O)OC(C)(C)C)CC2)c(C)c1`, the IC50 in the experiment on A549 worked out at 1.46 µM. The same measure, in the same setting: the same measure for `CC(C)(C)OC(=O)N1CCN(C(=S)Sc2ccccc2Cl)CC1`: 1.56 µM; for `COc1ccc(SC(=S)N2CCN(C(=O)OC(C)(C)C)CC2)cc1`: 0.712 µM; for `CC(C)(C)OC(=O)N1CCN(C(=S)Sc2ccc(C(C)(C)C)cc2)CC1`: 0.769 µM. Turning to `Cc1ccc(C)c(SC(=S)N2CCN(C(=O)OC(C)(C)C)CC2)c1`, the IC50 in the experiment on A549 was found to be 0.539 µM. On the same count and under the same terms, with `CC(C)(C)OC(=O)N1CCN(C(=S)Sc2ccc(F)cc2)CC1` the figure was 1.56 µM. For `CC(C)(C)OC(=O)N1CCN(C(=S)Sc2cccc(Cl)c2)CC1`, the IC50 in the experiment on A549 stood at 0.634 µM. `S=C(Sc1ccccc1)N1CCCCC1`: the IC50 with A549 came to 7.93 µM. Same read-out and setting: with `CC(C)(C)OC(=O)N1CCN(C(=S)Sc2ccc(Cl)cc2)CC1` the figure was 1.07 µM; with `Cc1ccc(SC(=S)N2CCN(C(=O)OC(C)(C)C)CC2)cc1`, 2.1 µM.

As to `CCCCN(CCCC)C(=S)Sc1ccccc1`, in the experiment with A549, the IC50 was 9.76 µM. As to `Cc1ccccc1SC(=S)N1CCN(C(=O)OC(C)(C)C)CC1`, the IC50 in the experiment on A549 is 2.27 µM. Regarding `S=C(Sc1ccccc1)N1CCOCC1`, the IC50 in the experiment on A549 was 2.52 µM.

In the case of `CC(=O)O[C@H]1C(=O)[C@@]2(C)[C@H]([C@H](OC(=O)c3ccccc3)[C@]3(O)C[C@H](OC(=O)[C@H](O)[C@@H](NC(=O)c4ccccc4)c4ccccc4)C(C)=C1C3(C)C)[C@]1(OC(C)=O)CO[C@@H]1C[C@@H]2O`, the outcome on Tubulin (Homo sapiens) [12] was Active. In addition, the Activity result at Tubulin (Homo sapiens) [13] is “Dde”.
